Measurements reported in PubChem BioAssay (NCI).
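Five compound concentrations were applied to cells in 96-well plates for 48 hours; endpoints were derived by simple linear interpolation of the resulting dose-response curve. TGI: total growth inhibition.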

Assays:
Assay in all cases: NCI tumour cell line growth inhibition, 48 h
RXF-631 renal = tested on: RXF-631 renal
XF 498 CNS = tested on: XF 498 CNS
KM12 colon = tested on: KM12 colon
SF-268 CNS = tested on: SF-268 CNS
SR leukemia = tested on: SR leukemia
A549 NSCLC = tested on: A549 NSCLC
M14 melanoma = tested on: M14 melanoma
OVCAR-8 ovarian = tested on: OVCAR-8 ovarian
OVCAR-5 ovarian = tested on: OVCAR-5 ovarian
CAKI-1 renal = tested on: CAKI-1 renal
MALME-3M melanoma = tested on: MALME-3M melanoma
HL-60(TB) leukemia = tested on: HL-60(TB) leukemia
NCI-H226 lung = tested on: NCI-H226 lung
LOX IMVI melanoma = tested on: LOX IMVI melanoma
NCI-H522 lung = tested on: NCI-H522 lung
MOLT-4 leukemia = tested on: MOLT-4 leukemia
SNB-75 CNS = tested on: SNB-75 CNS
SF-295 CNS = tested on: SF-295 CNS
KM20L2 colon = tested on: KM20L2 colon
NCI-H23 lung = tested on: NCI-H23 lung
RXF 393 renal = tested on: RXF 393 renal
HOP-18 NSCLC = tested on: HOP-18 NSCLC
A498 renal = tested on: A498 renal
OVCAR-4 ovarian = tested on: OVCAR-4 ovarian
LXFL 529 NSCLC = tested on: LXFL 529 NSCLC
UO-31 renal = tested on: UO-31 renal
M19-MEL melanoma = tested on: M19-MEL melanoma
CCRF-CEM leukemia = tested on: CCRF-CEM leukemia
HCC-2998 colon = tested on: HCC-2998 colon
SK-MEL-28 melanoma = tested on: SK-MEL-28 melanoma
UACC-257 melanoma = tested on: UACC-257 melanoma
DLD-1 colon = tested on: DLD-1 colon
HOP-62 NSCLC = tested on: HOP-62 NSCLC
HT29 colon = tested on: HT29 colon
IGROV1 ovarian = tested on: IGROV1 ovarian
SK-OV-3 ovarian = tested on: SK-OV-3 ovarian
DMS 114 small cell lung = tested on: DMS 114 small cell lung
SN12C renal = tested on: SN12C renal
OVCAR-3 ovarian = tested on: OVCAR-3 ovarian
HCT-116 colon = tested on: HCT-116 colon
SK-MEL-2 melanoma = tested on: SK-MEL-2 melanoma
U251 CNS = tested on: U251 CNS
SNB-78 CNS = tested on: SNB-78 CNS
K-562 leukemia = tested on: K-562 leukemia
COLO 205 colon = tested on: COLO 205 colon
ACHN renal = tested on: ACHN renal
HCT-15 colon = tested on: HCT-15 colon
786-0 renal = tested on: 786-0 renal
HOP-92 NSCLC = tested on: HOP-92 NSCLC
UACC-62 melanoma = tested on: UACC-62 melanoma
DMS 273 small cell lung = tested on: DMS 273 small cell lung
SF-539 CNS = tested on: SF-539 CNS
SK-MEL-5 melanoma = tested on: SK-MEL-5 melanoma
SNB-19 CNS = tested on: SNB-19 CNS
EKVX NSCLC = tested on: EKVX NSCLC
NCI-H460 lung = tested on: NCI-H460 lung
TK-10 renal = tested on: TK-10 renal
RPMI-8226 leukemia = tested on: RPMI-8226 leukemia
SW-620 colon = tested on: SW-620 colon

Measured: TGI

CCOC(=O)c1sc2c(sc(=O)n2-c2ccccc2)c1O
> 100 µM: RXF-631 renal | XF 498 CNS | KM12 colon | SF-268 CNS | SR leukemia | A549 NSCLC | M14 melanoma | OVCAR-8 ovarian | OVCAR-5 ovarian | CAKI-1 renal | MALME-3M melanoma | HL-60(TB) leukemia | NCI-H226 lung | LOX IMVI melanoma | NCI-H522 lung | MOLT-4 leukemia | SNB-75 CNS | SF-295 CNS | KM20L2 colon | NCI-H23 lung | RXF 393 renal | HOP-18 NSCLC | A498 renal | OVCAR-4 ovarian | LXFL 529 NSCLC | UO-31 renal | M19-MEL melanoma | CCRF-CEM leukemia | HCC-2998 colon | SK-MEL-28 melanoma | UACC-257 melanoma | DLD-1 colon | HOP-62 NSCLC | HT29 colon | IGROV1 ovarian | SK-OV-3 ovarian | DMS 114 small cell lung | SN12C renal | OVCAR-3 ovarian | HCT-116 colon | SK-MEL-2 melanoma | U251 CNS | SNB-78 CNS | K-562 leukemia | COLO 205 colon | ACHN renal | HCT-15 colon | 786-0 renal | HOP-92 NSCLC | UACC-62 melanoma | DMS 273 small cell lung | SF-539 CNS | SK-MEL-5 melanoma | SNB-19 CNS | EKVX NSCLC | NCI-H460 lung | TK-10 renal

CN(c1nc(=[N+](C)C)ss1)C1CCCCC1
> 100 µM: RXF-631 renal | XF 498 CNS | KM12 colon | SF-268 CNS | SR leukemia | A549 NSCLC | M14 melanoma | OVCAR-8 ovarian | OVCAR-5 ovarian | CAKI-1 renal | MALME-3M melanoma | HL-60(TB) leukemia | NCI-H226 lung | RPMI-8226 leukemia | LOX IMVI melanoma | NCI-H522 lung | MOLT-4 leukemia | SNB-75 CNS | SF-295 CNS | KM20L2 colon | NCI-H23 lung | RXF 393 renal | HOP-18 NSCLC | A498 renal | OVCAR-4 ovarian | LXFL 529 NSCLC | UO-31 renal | M19-MEL melanoma | CCRF-CEM leukemia | HCC-2998 colon | SK-MEL-28 melanoma | UACC-257 melanoma | DLD-1 colon | HOP-62 NSCLC | HT29 colon | IGROV1 ovarian | SK-OV-3 ovarian | DMS 114 small cell lung | SN12C renal | HCT-116 colon | SK-MEL-2 melanoma | U251 CNS | SNB-78 CNS | K-562 leukemia | ACHN renal | HCT-15 colon | SW-620 colon | 786-0 renal | HOP-92 NSCLC | UACC-62 melanoma | DMS 273 small cell lung | SF-539 CNS | SK-MEL-5 melanoma | SNB-19 CNS | EKVX NSCLC | NCI-H460 lung | TK-10 renal

C/C(=N/NC(=O)c1ccccc1O)c1ccc(/C(C)=N\NC(=O)c2ccccc2O)c2nc3cc(C)c(C)cc3nc12
> 100 µM: RXF-631 renal | XF 498 CNS | KM12 colon | SF-268 CNS | A549 NSCLC | M14 melanoma | OVCAR-8 ovarian | OVCAR-5 ovarian | MALME-3M melanoma | NCI-H226 lung | LOX IMVI melanoma | NCI-H522 lung | MOLT-4 leukemia | SNB-75 CNS | SF-295 CNS | KM20L2 colon | NCI-H23 lung | RXF 393 renal | HOP-18 NSCLC | A498 renal | OVCAR-4 ovarian | LXFL 529 NSCLC | UO-31 renal | M19-MEL melanoma | CCRF-CEM leukemia | HCC-2998 colon | SK-MEL-28 melanoma | UACC-257 melanoma | DLD-1 colon | HOP-62 NSCLC | HT29 colon | IGROV1 ovarian | SK-OV-3 ovarian | DMS 114 small cell lung | SN12C renal | OVCAR-3 ovarian | HCT-116 colon | SK-MEL-2 melanoma | U251 CNS | SNB-78 CNS | K-562 leukemia | COLO 205 colon | ACHN renal | HCT-15 colon | SW-620 colon | 786-0 renal | HOP-92 NSCLC | UACC-62 melanoma | DMS 273 small cell lung | SF-539 CNS | SK-MEL-5 melanoma | SNB-19 CNS | EKVX NSCLC | NCI-H460 lung | TK-10 renal
